Data on 1 compound can be found in publication PMC6943612, “Investigation of Anti-Inflammatory Potential of N-Arylcinnamamide Derivatives” (Molecules, 2019).

Broadly, the IC50 is the midpoint of a concentration-inhibition curve. The term inhibition denotes the drop in the measured response relative to a control, in per cent. A high value points to a response far below the control.

One assay relates to NF-κB p65. The assay is described as follows: Immunocytochemical analysis of NF-κB nuclear migration. As to conditions: 2 µM, 1 h after LPS 1 µg/mL, PMA-differentiated macrophages. In kind it is cell-based. Here is the method:
To differentiate THP1-Blue™ NF-κB monocytes into macrophages, the cells were stimulated with phorbol myristate acetate (PMA) at the final concentration of 50 ng/mL, as was described previously. Cells were seeded into 8-well cell culture glass slide (SPL, Korea) at the concentration of 500,000 cells/mL, 150,000 cells per well. The compound 17 was added at the final concentration of 2 µM, and 1 h later, the cells were activated by LPS (1 µg/mL). After 1h, the culture slide was washed with PBS and fixed with 4% formaldehyde. The cells were permeabilized by 0.1% Triton X-100 (v/v; Merck) and blocked with 3% bovine serum albumin (BSA, Merck) dissolved in PBS. The primary antibody NF-κB p65 (Abcam, Cambridge, UK; product No. ab16502) at concentration 2.5 µg/mL was used for overnight incubation at 4 °C. After that, secondary anti-rabbit antibody labeled with Alexa Fluor® 488 (Cell Signaling; product No. 4412; dilution 1:1000) was added for 1 h in dark, and the nuclei were stained using 0,5 µg/mL DAPI (Merck) for 5 min. The wells were washed three-times between the mentioned steps with PBS. The coverslip was mounted with VectaShield mounting (Vector laboratories, Burlingame, CA, USA) medium and sealed with the nail polish. The nail polish was allowed to dry at 4 °C and the translocation of NF-κB was observed by fluorescence microscopy. […]

Another assay has as its system THP1-Blue™ NF-κB cells. The assay is described as follows: Cell viability determination (WST-1), 24 h. In kind it is cell-based. The note with it: WST-1, 24 h incubation, serum-free medium, three independent measurements; read-out: IC50 ± SEM, viability of THP1-Blue™ NF-κB cell line. As to the method: The cell viability was determined as was described previously. […] The final concentration of DMSO was 0.1% (v/v) in each well. Measurements were taken after 24 h incubation with the tested substances. Viability was measured by the Cell Proliferation Reagent kit WST-1 (Roche Diagnostics, Basel, Switzerland) according to the manufacturer’s manual. […] The IC50 values were calculated by four-parameter logistic (4PL) analysis from obtained viability curves.
A general note: Tetrazolium assays rely on reduction of a dye to a coloured formazan, in cell work by metabolically active cells.

The subject of assay [1] is transcription factor NF-κB. The assay is described as follows: Determination of LPS-induced NF-κB activity (Quanti-Blue, SEAP reporter). In kind it is cell-based. As to the method: The activity of NF-κB transcription factors was evaluated on THP1-Blue™ NF-κB cells as described previously. […] After 24 h of incubation, 20 µL of cultivation medium was mixed with 200 µL of Quanti-Blue™ medium (Invivogen) and incubated according to the manufacturer’s instructions at 37 °C for 30–40 min. The activity of NF-κB was determined as secretion of embryonic alkaline phosphatase spectrophotometrically in a Tecan Infinite M200 (Tecan, Männedorf Switzerland) at 650 nm and compared with an untreated control (100%).
Figure 3 Effect of the tested compounds on the activity of transcription factor NF-κB. THP1-Blue™ NF-κB cells were pretreated by compounds (2 µM; or 0.5 µM for 10, 11, and 13) or prednisone (PDS; 2 µM) dissolved in DMSO at indicated concentrations for 1 h. Then, lipopolysaccharide (LPS) 1 µg/mL was added to trigger the NF-κB activation. The activity of NF-κB was measured 24 h after LPS stimulation using QuantiBlue™ assay. Graph represents mean ± SEM. Red dotted line show value of DMSO-only treated group, azur dotted line CA treated group, and blue dotted line PDS treated group. ** indicates statistical significance (p < 0.01) to DMSO group; *** indicates statistical significance (p < 0.001) to DMSO group **** indicates statistical significance (p < 0.0001) to DMSO group.

The test system of the next assay is TNF-α. The assay is described as follows: TNF-α secretion by LPS-stimulated PMA-differentiated THP1-Blue™ NF-κB macrophages (ELISA). In kind it is cell-based, Human. The note with it: 2 µM, LPS 1 µg/mL, 24 h. Here is the method: Differentiated THP1-Blue™ NF-κB macrophages (see the chapter 3.6) were pre-treated for 1 h with 2 µM solutions of the tested compounds 8, 12, 6, 17, cinnamic acid, and prednisone dissolved in DMSO, or only the vehicle [0.1% (v/v) […] solution]. The inflammatory-like response was triggered by adding 1 μg/mL of LPS from E. coli 0111:B4 (Sigma-Aldrich) to the pre-treated macrophages; the control cells were left without LPS treatment. After 24 h, the supernatants were collected and the concentration of TNF-α was measured using a Human TNF-α ELISA Kit (Diaclone, Besançon, France), according to the manufacturer’s manual.
Figure 7 Effect of N-arylcinnamamide derivatives on the secretion of TNF-α. THP1-Blue™ NF-κB cells were differentiated to macrophages by PMA. Such cells were pretreated by compounds or PDS (2 µM) for 1 h, then LPS (1 µg/mL) was added to trigger the inflammatory signalization. Cultivation medium was collected 24 h after LPS stimulation, and the amount of TNF-α was measured by the ELISA technique. Graph represents mean ± SEM. * indicates statistical significance (p < 0.05) to DMSO group; ** indicates statistical significance (p < 0.01) to DMSO group **** indicates statistical significance (p < 0.0001) to DMSO group.

A further assay concerns IκBα. The assay is described as follows: Signaling pathway analysis (Western blot): IκBα level. The class given is cell-based. The note with it: 2 µM, 30 min after LPS 1 µg/mL. As to the method: (§1) The level of IĸB and the amount of activated (phosphorylated) mitogen-activated protein (MAP) kinase p38, ERK1/2, and JNK was determined on the THP1-Blue™ NF-κB, in a way similar to that described previously. Briefly, cells cultivated in serum-free medium were pretreated with the tested compounds (8, 17, cinnamic acid, or prednisone) at concentration 2 µM. One hour later, 1 µg/mL of LPS was added, and after 30 min the cells were collected into ice-cold Mammalian Cell Lysis Buffer (Abcam, Cambridge, UK) with phosphatase inhibitors PhosSTOP (Roche, Mannheim, Germany). Cell lysates were centrifuged 3000 g/5 min/4 °C and supernatants were mixed with 5× Laemmli reducing buffer [250 mM Tris-HCl pH 6.8, 10% (w/v) SDS, 30% (v/v) glycerol, 5% (v/v) β-mercaptolethanol, 0.04% (w/v) bromphenol blue], and incubated at 95 °C for 5 min. […] The membranes were incubated at 4 °C for 16 h with primary anti-IĸB-α (Cell Signaling; product No. 4814; dilution 1:1,000), anti-p44/42 MAPK (ERK1/2) (Cell Signaling; product No. 9102; dilution 1:1,000), anti-phospho-p44/42 MAPK (ERK1/2) (Cell Signaling; product No. 9101; dilution 1:1,000), anti-JNK1/2/3 (Abcam; product No. ab179461; dilution 1:1,000), anti-phosho-JNK1/2/3 (Abcam; product No. ab76572; dilution 1:5,000), anti-p38 MAPK (Cell Signaling; product No. 8690; dilution 1:1,000), anti-phospho-p38 MAPK (Cell Signaling; product No. 9210; dilution 1:1,000), and anti-β-actin (Santa Cruz, Aachen, Germany; product No. sc-47778; dilution 1:5000) antibodies. […] The amount of bound secondary antibody was determined using WesternSure® PREMIUM Chemiluminescent Substrate (LI-COR, Lincoln, NE, USA). Chemiluminescence was detected using a LI-COR C-DiGit chemiluminescence imaging system (LI-COR).
(§2) Figure 6 Effect of N-arylcinnamamide derivatives on the activation of MAPKs. […] Cells were collected 30 min after LPS stimulation and selected proteins were detected by Western blot and immunodetection.

The test system of another assay is MAPKs (p38, ERK1/2, JNK). The assay is described as follows: Signaling pathway analysis (Western blot): phosphorylated MAPKs. The class given is cell-based. The note with it: 2 µM, 30 min after LPS 1 µg/mL. Here is the method: as §1, §2
A general note: Immunoblotting shows a protein as a band on a membrane.

Structures are written as SMILES.

For the compound `O=C(/C=C/c1ccccc1)Nc1cc(C(F)(F)F)ccc1Cl` [Compound 17, (2E)-N-[2-Chloro-5-(trifluoromethyl)phenyl]-3-phenylprop-2-enamide], the “nuclear translocation of NF-κB after LPS stimulation” value in the assay with NF-κB p65 is listed as “slightly affected”. For the same compound, the IC50 in the assay with THP1-Blue™ NF-κB cells was above 30 µM. Besides, the “inhibitory effect on NF-κB activity compared with prednisone (in words)” value in assay [1] (2 µM, same concentration as prednisone) was “comparable with prednisone”. Besides, the inhibition at 2 µM in assay [1] (concentration of compounds 2 µM, LPS 1 µg/mL, 24 h) stood at 27.1%. Further, in the assay on TNF-α, the “decrease of the level of TNF-α” value is given as 12.4% and the “effect on TNF-α production (in words)” value is “decreased”. For the same compound, the “effect on IκBα levels” value in the assay with IκBα is reported as “no effect”. Moreover, in the assay with MAPKs (p38, ERK1/2, JNK), the “effect on MAPKs activity” value is “no effect”.
